The conditions of series [1]: Crystal; DTA.
The nature of series [2]: Molar enthalpy of transition or fusion. Particulars: DSC.
Series [3] can be described thus: Solid-liquid equilibrium temperature. Particulars: 101 kPa; Crystal 2; DTA.

Numbers after ± are expanded uncertainties.

For `CCCC[N+](CCCC)(CCCC)CCCC.O=[N+]([O-])[O-]` [tetrabutylammonium nitrate], the Normal melting temperature in series [1] amounted to 118.0 ± 1.1 °C. For the same compound, the “Molar enthalpy of transition or fusion” value in series [2] (Crystal 2) is 0.0478 ± 0.0239 kcal/mol; in series [2] (Crystal), 3.42 ± 0.12 kcal/mol. Moreover, the Solid-liquid equilibrium temperature in series [3] stood at 361.4 ± 0.2 K.
As for `CC[N+](CC)(CC)CC.O=[N+]([O-])[O-]` [tetraethylammonium nitrate], the “Molar enthalpy of transition or fusion” value in series [2] (Crystal 2) came to 2.58 ± 0.0956 kcal/mol. Moreover, the Solid-liquid equilibrium temperature in series [3] is given as 371.5 ± 0.3 K.

Source of the values: the NIST ThermoML archive (doi:10.1016/j.jct.2012.02.035).
